# Values quoted from earlier work in patent publication US9725402B2, “Nitroso compounds as nitroxyl donors and methods of use thereof” (priority 2008, dated 2017).
# How the values were obtained:
# [1] = tested on: myocardial ischemia/reperfusion injury; conditions: administered during ischemia and 5 minutes prior to reperfusion, anesthetized rabbits
# pheochromocytoma = conditions: subcutaneous xenograft, dose nontoxic to nude mice
# [2] = tested on: cultured breast cancer cells
# breast cancer cells = conditions: mouse xenograft model
Structure (SMILES),toxicity to cancer cells (cancer cells; pH 7.4),cytotoxicity to cancer cells (cancer cells; weakly acidic solutions),myocardial ischemia/reperfusion injury [1],tumor growth (pheochromocytoma),proliferation of cultured breast cancer cells [2],tumor mass (breast cancer cells),pH at which compound is a nitroxyl donor (nitroxyl donor only at high pH),"species donated under physiological conditions (physiological conditions, oxidative pathway)"
"[Na+].[Na+].[O-][N+]([O-])=NO [Angeli's salt, sodium α-oxyhyponitrite]",no toxicity,strong cytotoxicity,increased myocardial ischemia/reperfusion injury,inhibit tumor growth,inhibits the proliferation,decreases tumor mass,,
"O=S(=O)(NO)c1ccccc1 [PA, N-hydroxybenzenesulfonamide]",,,,,,,> 9,nitric oxide donor
